We go through 31 compounds from patent US5955607A, “Sulfonamide-substituted chromans, processes for their preparation, their use as a medicament or diagnostic, and pharmaceutical preparations comprising them” (priority 1997, dated 1999).

Structures can show the parent of a compound that is named as a salt.

For one assay, the system named is IKr.
Test: not given
The following applies: known class III antiarrhythmics; cited from earlier work.
For the compound `CC(C)NC[C@@H](O)c1ccc(NS(C)(=O)=O)cc1` [d-sotalol], the “block of IKr” value is recorded as “mainly or exclusively block IKr”.

In a further assay the target is T1, human IsK protein (UniProt P15382+P70057).
T1 construct: channel formed with endogenous oocyte KCNQ1; two-microelectrode voltage clamp
T1 sequence (P70057 whole entry): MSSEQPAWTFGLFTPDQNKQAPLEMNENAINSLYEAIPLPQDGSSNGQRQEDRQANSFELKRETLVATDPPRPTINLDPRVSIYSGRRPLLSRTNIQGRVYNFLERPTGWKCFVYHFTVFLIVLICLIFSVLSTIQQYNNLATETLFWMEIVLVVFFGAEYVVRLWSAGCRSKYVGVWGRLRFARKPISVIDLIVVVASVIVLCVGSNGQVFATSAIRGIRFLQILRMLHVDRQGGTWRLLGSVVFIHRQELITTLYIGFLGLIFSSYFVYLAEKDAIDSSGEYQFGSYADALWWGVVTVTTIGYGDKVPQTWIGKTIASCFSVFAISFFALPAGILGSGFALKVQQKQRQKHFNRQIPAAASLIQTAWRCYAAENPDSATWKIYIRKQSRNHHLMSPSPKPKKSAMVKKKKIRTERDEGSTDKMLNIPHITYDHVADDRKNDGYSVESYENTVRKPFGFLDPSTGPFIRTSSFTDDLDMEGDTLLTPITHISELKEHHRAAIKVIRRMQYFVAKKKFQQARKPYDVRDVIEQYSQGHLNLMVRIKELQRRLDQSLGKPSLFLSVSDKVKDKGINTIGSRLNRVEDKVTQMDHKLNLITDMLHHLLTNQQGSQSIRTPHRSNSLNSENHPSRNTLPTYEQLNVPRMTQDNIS
Nature of the assay: cell-based. The following applies: human IsK expressed in Xenopus oocytes, -10 mV voltage jumps lasting 15 s, room temperature, pH 7.5; Hill equation.
The IC50 is the point on the concentration scale where inhibition reaches its midpoint. Lower therefore signals inhibition by little substance. The compound `CN(CCc1ccccc1)C(=O)CN(C1CC(C)(C)Oc2ccc(OCc3ccccc3)cc21)S(C)(=O)=O` (stereo not shown) [Example 39, 2-[(6-Benzyloxy-2,2-dimethylchroman-4-yl)methanesulfonylamino]-N-methyl-N-phenethylacetamide] gave an IC50 of 310 nM.
Still for that read-out and setting: the same measure for `CCOC(=O)CN(C)C(=O)CCCN(C1CC(C)(C)Oc2ccc(OCc3ccccc3)cc21)S(C)(=O)=O` (stereo not shown) [Example 31, Ethyl ({4-[(6-benzyloxy-2,2-dimethylchroman-4-yl)methanesulfonylamino]butyryl}methylamino)acetate]: 280 nM.
Same read-out and setting: the same measure for `COCCOCCN(C1CC(C)(C)Oc2ccc(OCc3ccccc3)cc21)S(C)(=O)=O` (stereo not shown) [Example 38, N-(6-Benzyloxy-2,2-dimethylchroman-4-yl)-N-[2-(2-methoxyethoxy)ethyl]methanesulfonamide]: 1420 nM; for `CCS(=O)(=O)N(CC(=O)Nc1ncccn1)C1CC(C)(C)Oc2ccc(F)cc21` (stereo not shown) [Example 24, 2-[Ethanesulfonyl-(6-fluoro-2,2-dimethylchroman-4-yl)amino]-N-pyrimidin-2-ylacetamide]: 1000 nM.
As to `CCOC(=O)CN(C)C(=O)CN(C1CC(C)(C)Oc2ccc(OCc3ccccc3)cc21)S(C)(=O)=O` (stereo not shown) [Example 32, Ethyl ({2-[(6-benzyloxy-2,2-dimethylchroman-4-yl)methanesulfonylamino]acetyl}methylamino)acetate], the IC50 was 250 nM.
Regarding `CCS(=O)(=O)N(CC(=O)Nc1cnccn1)C1CC(C)(C)Oc2ccc(F)cc21` (stereo not shown) [Example 25, 2-[Ethanesulfonyl-(6-fluoro-2,2-dimethylchroman-4-yl)amino]-N-pyrazin-2-ylacetamide], the IC50 was 450 nM.
The same measure, in the same setting: in the case of `COCCOCCCCN(C1CC(C)(C)Oc2ccc(OCc3ccccc3)cc21)S(C)(=O)=O` (stereo not shown) [Example 29, N-(6-Benzyloxy-2,2-dimethylchroman-4-yl)-N-[4-(2-methoxyethoxy)butyl]methanesulfonamide] it was less than 1000 nM; in that of `CCCCOc1ccc2c(c1)C(N(CCOCC(=O)O)S(C)(=O)=O)CC(C)(C)O2` (stereo not shown) [Example 43, {2-[(6-Butoxy-2,2-dimethylchroman-4-yl)methanesulfonylamino]ethoxy}acetic acid], 7800 nM; in that of `CCS(=O)(=O)N(CC(=O)Nc1nc[nH]n1)C1CC(C)(C)Oc2ccc(F)cc21` (stereo not shown) [Example 54, 2-[Ethanesulfonyl-(6-fluoro-2,2-dimethylchroman-4-yl)amino]-N-(1H-[1,2,4]triazol-3-yl)acetamide], 830 nM.
Still for that read-out and setting: the same measure for `CCS(=O)(=O)N(CC(=O)NCCN(C)Cc1ccccc1)C1CC(C)(C)Oc2ccc(F)cc21` (stereo not shown) [Example 62, N-[2-(Benzyl-methyl-amino)-ethyl]-2-[ethanesulfonyl-(6-fluoro-2,2-dimethyl-chroman-4-yl)-amino]-acetamide]: less than 1000 nM; for `CC1(C)CC(N(CCCCOCC(=O)O)S(C)(=O)=O)c2cc(OCc3ccccc3)ccc2O1` (stereo not shown) [Example 34, {4-[(6-Benzyloxy-2,2-dimethylchroman-4-yl)methanesulfonylamino]butoxy}acetic acid]: approximately 700 nM.
Same read-out and setting: in the case of `CC1(C)Oc2ccc(Cl)cc2[C@@H](N(CC(=O)NCCc2ccccc2)S(C)(=O)=O)[C@@H]1O` (relative stereo) [Example 58, 2-[(6-Chloro-3-hydroxy-2,2-dimethylchroman-4-yl)methanesulfonylamino]-N-phenethylacetamide] it was 500 nM; in that of `CC1(C)CC(N(CC(=O)NCCc2ccccn2)S(C)(=O)=O)c2cc(OCc3ccccc3)ccc2O1` (stereo not shown) [Example 17, 2-[(6-Benzyloxy-2,2-dimethylchroman-4-yl)methanesulfonylamino]-N-(2-pyridin-2-yl-ethyl)acetamide], less than 1000 nM.
With `CCS(=O)(=O)N(CC(=O)Nc1ccncc1)C1CC(C)(C)Oc2ccc(F)cc21` (stereo not shown) [Example 22, 2-[Ethanesulfonyl-(6-fluoro-2,2-dimethylchroman-4-yl)amino]-N-pyridin-4-ylacetamide], the IC50 came to 670 nM.
Consider `CCS(=O)(=O)N(CC(=O)OCCN(C)Cc1ccccc1)C1CC(C)(C)Oc2ccc(F)cc21` (stereo not shown) [Example 49, 2-(Benzylmethylamino)ethyl [ethanesulfonyl-(6-fluoro-2,2-dimethylchroman-4-yl)amino]acetate], for which the IC50 is 83 nM. This IC50 is about 8.1-fold lower than that of the compound before.
In turn, `CCOCCOCCOC(=O)CN(C1CC(CC)(CC)Oc2ccc(C)cc21)S(=O)(=O)CC` (stereo not shown) [Example 4, 2-(2-Ethoxyethoxy)ethyl [(2,2-diethyl-6-methylchroman-4-yl)-ethylsulfonylamino]acetate] returned an IC50 of 1000 nM. This IC50 is about 12-fold higher than that of the compound before.
Compound `CCS(=O)(=O)N(CC(=O)Nc1nc2ccccc2n1C)C1CC(C)(C)Oc2ccc(F)cc21` (stereo not shown) [Example 27, 2-[Ethanesulfonyl-(6-fluoro-2,2-dimethylchroman-4-yl)amino]-N-(1-methyl-1H-benzoimidazol-2-yl)acetamide] gave an IC50 of 2100 nM.
On the same count and under the same terms, in the case of `CN(CCc1ccccn1)C(=O)CN(C1CC(C)(C)Oc2ccc(OCc3ccccc3)cc21)S(C)(=O)=O` (stereo not shown) [Example 40, 2-[(6-Benzyloxy-2,2-dimethylchroman-4-yl)methanesulfonylamino]-N-methyl-N-(2-pyridin-2-yl-ethyl)acetamide hydrochloride] it was 350 nM; in that of `Cc1ccc2c(c1)C(N(CCCCC(=O)OCCN(C)Cc1ccccc1)S(C)(=O)=O)CC(C)(C)O2` (stereo not shown) [Example 10, 2-(Benzylmethylamino)ethyl 5-[methanesulfonyl-(2,2,6-trimethylchroman-4-yl)amino]pentanoate], 790 nM.
Still for that read-out and setting: in the case of `CCCCNC(=O)CCCN(C1CC(C)(C)Oc2ccc(OCc3ccccc3)cc21)S(C)(=O)=O` (stereo not shown) [Example 28, 4-[(6-Benzyloxy-2,2-dimethylchroman-4-yl)methanesulfonylamino]-N-butylbutyramide] it was 470 nM.
Take `CCCCOc1ccc2c(c1)C(N(CCCOCCO)S(C)(=O)=O)CC(C)(C)O2` (stereo not shown) [Example 45, N-(6-Butoxy-2,2-dimethylchroman-4-yl)-N-[3-(2-hydroxyethoxy)propyl]methanesulfonamide]: the half-maximal inhibitory concentration (IC50) was 450 nM.
`CCS(=O)(=O)N(CC(=O)Nc1cccnc1)C1CC(C)(C)Oc2ccc(F)cc21` (stereo not shown) [Example 23, 2-[Ethanesulfonyl-(6-fluoro-2,2-dimethylchroman-4-yl)-amino]N-pyridin-3-ylacetamide] had a concentration for half-maximal inhibition (IC50) of 550 nM.
Same read-out and setting: in the case of `CCCCOc1ccc2c(c1)C(N(CCCOC(=O)NCCN1CCOCC1)S(C)(=O)=O)CC(C)(C)O2` (stereo not shown) [Example 47, 3-[(6-Butoxy-2,2-dimethylchroman-4-yl)methanesulfonylamino]propyl (^2-morpholin-4-yl-ethyl)carbamate] it was 750 nM; in that of `CCCCOc1ccc2c(c1)C(N(CCOCCOC)S(C)(=O)=O)CC(C)(C)O2` (stereo not shown) [Example 42, N-(6-Butoxy-2,2-dimethylchroman-4-yl)-N-[2-(2-methoxyethoxy)ethyl]methanesulfonamide], 340 nM.
Still for that read-out and setting: the same measure for `CCS(=O)(=O)N(CC(=O)Nc1ccccn1)C1CC(C)(C)Oc2ccc(F)cc21` (stereo not shown) [Example 14, 2-[(6-Fluoro-2,2-dimethylchroman-4-yl)ethanesulfonylamino]-N-pyridin-2-ylacetamide]: 180 nM; for `CCS(=O)(=O)N(CC(=O)Nc1nc2ccccc2[nH]1)C1CC(C)(C)Oc2ccc(F)cc21` (stereo not shown) [Example 61, N-(1H-Benzoimidazol-2-yl)-2-[ethanesulfonyl-(6-fluoro-2,2-dimethyl-chroman-4-yl)-amino]-acetamide]: less than 1000 nM; for `CCCCOc1ccc2c(c1)C(N(CC(=O)NC(=N)N)S(C)(=O)=O)CC(C)(C)O2` (stereo not shown) [Example 56, N-(6-Butoxy-2,2-dimethylchroman-4-yl)-N-(2-guanidino-2-oxoethyl)methanesulfonamide]: 3400 nM.
The same measure, in the same setting: in the case of `CCS(=O)(=O)N(CC(=O)NCCc1ccccn1)C1CC(C)(C)Oc2ccc(F)cc21` (stereo not shown) [Example 9, 2-[Ethylsulfonyl-(6-fluoro-2,2-dimethylchroman-4-yl)amino]-N-(2-pyridin-2-ylethyl)acetamide] it was 1600 nM; in that of `CCS(=O)(=O)N(CC(=O)NCCc1ccccc1)C1CC(C)(C)Oc2ccc(F)cc21` (stereo not shown) [Example 21, 2-[Ethanesulfonyl-(6-fluoro-2,2-dimethylchroman-4-yl)amino]-N-phenethylacetamide], 46 nM.

The test system of another assay is K^+ (ATP) channel.
Test: not given
Particulars: cromakalim (formula A) and analogous acylamino compounds; cited from earlier work.
Turning to `CC1(C)Oc2ccc(C#N)cc2[C@@H](N2CCCC2=O)[C@@H]1O` (relative stereo) [cromakalim], the “action on ATP-sensitive K^+ channels” value is listed as “act as openers of ATP-sensitive K^+ channels”.
